ChEMBL document CHEMBL1121693 (1981)

Tests used:
Assay type in all cases: functional
Mus musculus [1] = organism: Mus musculus
Mus musculus [2] = organism: Mus musculus; remark: listed apart in the source
Mus musculus [3] = organism: Mus musculus; remark: listed apart in the source

SMILES: c1ccc(C2(N3CCCCC3)CCCCC2)cc1 [PHENCYCLIDINE]
- No. of mice (Mus musculus [1]): 0
- No. of mice (Mus musculus [2]): 0
- No. of mice (Mus musculus [3]): 4
